Measured values from patent US11179397B2, “Imidazopyrimidine derivatives” (Gilead Sciences, Inc., priority 2018, dated 2021).
Like-named read-outs stand apart in the source and are kept apart here.

Columns and labels:
[1] = molecular target: SHP-2 full length protein (Homo sapiens (Human), UniProt Q06124); assay: SHP-2 biochemical DiFMUP pseudosubstrate-fluorogenic assay; conditions: 0.2 nM SHP-2, 1 μM IRS-1 activator peptide, 50 μM DiFMUP; read-out: SHP2 IC50
Experimental: SHP-2 Biochemical Assay Materials Recombinant SHP-2 full length protein was generated in house. SHP-2 protein tyrosine phosphatase (PTP) domain protein (Catalog number SPR0217-20 ug), NaCl (Catalog number S6546-1L), and KCl (Catalog number 60142-500 mL) were purchased from Sigma-Aldrich (St. Louis, Mo.). IRS-1_[…](dPEG8)[…] peptide […]) was custom made by AnaSpec (Fremont, Calif.). DiFMUP substrate (Catalog number D6567), EDTA (Catalog number E177-500 mL), DTT (Catalog number P2325), and 384-well black polystyrene non-binding surface (Catalog number 3820) were purchased from Fisher Scientific (Hanover Park, Ill.). HEPES (Catalog number 15630-080) was purchased from Life Technologies (Pleasanton, Calif.), and Tween-20 (Catalog number 95059-250) was purchased from VWR (Radnor, Pa.). Method Inhibition of SHP-2 activity by small molecule inhibitors was monitored by a biochemical DiFMUP pseudosubstrate-fluorogenic assay. […] The reaction mix was added to the 384-well non-binding plate which had been pre-spotted with 1:3 serial diluted compounds from 10,000-0.005 nM, and incubated at room temperature for 90 min. DiFMUP substrate at final concentration of 50 μM was then added to the wells and incubated for additional 30 min at room temperature. The final reaction volume was 20 μl/well. […] The inhibitor dose response curves were generated using normalized IC50 regression curve fitting by in house dose response analysis tools. The wells with DMSO vehicle were used as controls (100% signal). The percent (%) control of SHP-2 compound was calculated as: (Compound well fluorescence counts/DMSO fluorescence counts)×100%.

NCI-H358 cells = assay: NCI-H358 3D tumor spheroid growth inhibition; format: cell-based; conditions: 3D spheroids, 7 days, 3D CellTiter Glo, cellular IC50 designated EC50, read-out: H358 EC50
Source text: SHP-2 Cell Based Assay: […] Materials NCI-H358 cell line was purchased from [NT] number ATCC CRL-5807) (Manassas, Va.). RPMI-1640 (Catalog number 10-040-CM) was from Corning Cellgro (Manassas, Va.), Fetal Bovine Serum (FBS) (Catalog number SH30071.03) was from HyClone (Logan, Utanh), and 100× Penicillin/Streptomycin/L-Glutamine stock (Catalog no. 30-009-CI) and 384-well ULA plates (Catalog number 3830) were from Corning (Fremont, Calif.). Method […] At the day of assay, the cells were trypsinized and seeded at 1000 cells/70 μl/well in 384-well ULA plates and incubated at 37° C. incubator with 5% CO2 to allow spheroids to form. […] The plates were incubated for additional 7 days. Then 35 μl of medium from each well was removed, and replaced with 35 μl of 3D CellTiter Glo reagent from Promega. The wells were mixed by pipetting up and down with Biomek FX for 15 times to induce cell lysis and the plates were incubated at room temperature for additional 10 min to stabilize luminescent signal. The luminescence was then read by Envision. The inhibitor dose response curves were generated using normalized cellular IC50 (designated as EC50 in all FIGURES to distinguish from biochemical IC50s) by in house dose response analyses tools. The wells with DMSO vehicle were used as negative controls (0% inhibition). The % inhibition of SHP-2 compounds was calculated as: 100-[(Compound well luminescence counts/DMSO luminescence counts)×100%].

Sequence of SHP-2 full length protein (Q06124 whole entry): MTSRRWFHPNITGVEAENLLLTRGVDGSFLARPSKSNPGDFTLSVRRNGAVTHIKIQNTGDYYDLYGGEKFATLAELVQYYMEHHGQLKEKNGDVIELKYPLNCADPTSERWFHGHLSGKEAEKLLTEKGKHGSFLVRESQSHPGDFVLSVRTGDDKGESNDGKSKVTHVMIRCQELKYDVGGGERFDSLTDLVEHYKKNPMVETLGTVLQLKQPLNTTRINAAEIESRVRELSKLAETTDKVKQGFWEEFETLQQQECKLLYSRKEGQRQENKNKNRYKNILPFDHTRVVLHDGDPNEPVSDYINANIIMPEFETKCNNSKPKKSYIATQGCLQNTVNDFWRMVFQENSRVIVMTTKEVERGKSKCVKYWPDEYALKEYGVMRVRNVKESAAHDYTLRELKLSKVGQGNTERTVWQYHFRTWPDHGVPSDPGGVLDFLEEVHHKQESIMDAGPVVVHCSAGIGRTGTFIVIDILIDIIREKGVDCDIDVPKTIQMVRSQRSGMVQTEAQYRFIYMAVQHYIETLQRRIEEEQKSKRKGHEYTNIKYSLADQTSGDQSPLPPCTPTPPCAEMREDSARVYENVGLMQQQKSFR

| SMILES | IC50 [1] | EC50 (NCI-H358 cells; Homo sapiens, NCI-H358, 168 h) | EC50 (NCI-H358 cells) |
| --- | --- | --- | --- |
| C[C@@H]1OCC2(CCN(c3ncc(Sc4ccnc5[nH]cnc45)c4nccn34)CC2)[C@@H]1N [Example 131, (3S,4S)-8-(8-((3H-imidazo[4,5-b]pyridin-7-yl)thio)imidazo[1,2-c]pyrimidin-5-yl)-3-methyl-2-oxa-8-azaspiro[4.5]decan-4-amine] | 27 nM | 2100 nM | – |
| CSc1ccccc1Sc1cnc(N2CCC3(CC2)Cc2ccccc2[C@H]3N)n2ccnc12 [Example 141, (S)-1′-(8-((2-(methylthio)phenyl)thio)imidazo[1,2-c]pyrimidin-5-yl)-1,3-dihydrospiro[indene-2,4′-piperidin]-1-amine] | 1.8 nM | 30 nM | – |
| C[C@@H]1OCC2(CCN(c3ncc(Sc4ccnc5c(N)cccc45)c4nccn34)CC2)[C@@H]1N [Example 104, (3S,4S)-8-(8-((8-aminoquinolin-4-yl)thio)imidazo[1,2-c]pyrimidin-5-yl)-3-methyl-2-oxa-8-azaspiro[4.5]decan-4-amine] | 4.2 nM | 74 nM | – |
| C[C@@H]1OCC2(CCN(c3ncc(Sc4ccnc5cccnc45)c4nccn34)CC2)[C@@H]1N [Example 128, (3S,4S)-8-(8-((1,5-naphthyridin-4-yl)thio)imidazo[1,2-c]pyrimidin-5-yl)-3-methyl-2-oxa-8-azaspiro[4.5]decan-4-amine] | 14 nM | 59 nM | – |
| Cc1nc(N2CCC3(CCC[C@H]3N)CC2)n2ccnc2c1-c1cccc(Cl)c1Cl (single isomer, unassigned) [Example 11] | 3.6 nM | – | 60 nM |
| N[C@@H]1CCCC12CCN(c1ncc(Nc3cccc(Cl)c3Cl)c3nccn13)CC2 [Example 72, (R)-8-(8-((2,3-dichlorophenyl)amino)imidazo[1,2-c]pyrimidin-5-yl)-8-azaspiro[4.5]decan-1-amine] | 2000 nM | > 12500 nM | – |
| N#Cc1cccc2c(Sc3cnc(N4CCC5(CCC[C@H]5N)CC4)n4ccnc34)ccnc12 [Example 88, (R)-4-((5-(1-amino-8-azaspiro[4.5]decan-8-yl)imidazo[1,2-c]pyrimidin-8-yl)thio)quinoline-8-carbonitrile] | 18 nM | 160 nM | – |
| CSc1ccccc1Sc1cnc(N2CCC3(CC2)CO[C@@H](C)[C@H]3N)n2ccnc12 [Example 101, (3S,4S)-3-methyl-8-(8-((2-(methylthio)phenyl)thio)imidazo[1,2-c]pyrimidin-5-yl)-2-oxa-8-azaspiro[4.5]decan-4-amine] | 5.7 nM | 84 nM | – |
| Cc1nc(N2CCC3(CCC[C@H]3N)CC2)n2ccnc2c1-c1cccc(Cl)c1Cl (single isomer, unassigned) [Example 10] | 52 nM | – | 970 nM |
| Cc1nc(N2CCC3(CCC[C@H]3N)CC2)n2ccnc2c1Sc1ccnc(N)c1Cl [Example 18, (R)-8-(8-((2-amino-3-chloropyridin-4-yl)thio)-7-methylimidazo[1,2-c]pyrimidin-5-yl)-8-azaspiro[4.5]decan-1-amine] | 5.6 nM | 75 nM | – |
| C[C@@H]1OCC2(CCN(c3ncc(Sc4ccnc5c(Br)cccc45)c4nccn34)CC2)[C@@H]1N [Example 103] | 4.6 nM | 150 nM | – |
| N[C@@H]1c2ccccc2CC12CCN(c1ncc(Sc3ccnc4ccccc34)c3nccn13)CC2 [Example 145] | 2.8 nM | 20 nM | – |
| N[C@@H]1CCCC12CCN(c1ncc(Sc3ccnc4ccccc34)c3nccn13)CC2 [Example 78, (R)-8-(8-(quinolin-4-ylthio)imidazo[1,2-c]pyrimidin-5-yl)-8-azaspiro[4.5]decan-1-amine] | 5.9 nM | 95 nM | – |
| Cc1nc(N2CCC3(CCC[C@H]3N)CC2)n2ccnc2c1-c1cccc(Cl)c1Cl [Example 9, (R)-8-(8-(2,3-dichlorophenyl)-7-methylimidazo[1,2-c]pyrimidin-5-yl)-8-azaspiro[4.5]decan-1-amine] | 4.1 nM | 120 nM | – |
